US5759565A, “Galenic compositions comprising calcitonin and their use” (Novartis Corporation, priority 1982, dated 1998)

What was measured:
[1] = test system: ciliary beating frequency of rat trachea; test: Ciliary beating frequency, microphoto-oscillographic method of L. Chevance et al; format: cell-based; details: at 0.6%; within 20 minutes
Experimental: 70, […] (1970). These are just some of the disadvantageous effects that can be encountered.
Moreover the compositions are well tolerated as indicated in standard tests, e.g. in that less than 50% inhibition of ciliary beating frequency is observed up to 20 minutes after administration, according to the microphoto-oscillographic method of L. Chevance et al, Acta Otolaryng. 70, 26-28 (1970).

[2] = Relative bio-availability study: nasal administration/intra-muscular injection of salmon calcitonin, serum level by radio-immuno-assay; format: in vivo, human (healthy volunteers)
Experimental: The study is conducted with 12 healthy volunteers, 6 male and 6 female, with a body weight of from 50 to 85 kg. Each subject receives 4 administrations of salmon calcitonin, one intra-muscularly and 3 nasally. Administration is effected at the following dosages:
Nasal administration is effected using composition in accordance with example 1 and a spray-applicator delivering 55 MRC units per individual spray dosage. For the purposes of administration the subject is laid on the back with the head tilted backwards for 5 minutes. The nostrils are cleaned by blowing of the nose immediately prior to administration.
Intra-muscular administration is effected by injection of a single 1 ml dose of a composition similar to that of example 1, but omitting benzalkonium chloride and containing 50 MRC units into the glutaeus medius muscle.
Each subject receives the 4 administrations in randomized sequence, and at least 3 days are allowed between consecutive administrations. Each administration is effected in the morning after a light breakfast from which milk, butter and cheese is excluded. 100 ml water or orange juice is taken hourly following treatment to maintain urinary output. Further food is allowed not earlier than 4 hours after treatment.
Blood samples are taken immediately prior to administration (control), and at intervals of 5, 15, 30, 60, 90, 120, 180, 240, 360 and 480 minutes following administration. For the control a 20 ml sample is taken. All subsequent samples are 2 ml samples.
The concentration of salmon calcitonin in each serum sample is measured by radio-immuno-assay. Blood-pressure is controlled during the course of the trial and urine-samples tested for possible adverse reaction. Occurrence of side-effects, e.g. symptoms of nausea, is noted.
The AUC ("area under curve") for salmon calcitonin plasma concentration is calculated statistically, once employing all value, including those below the 26 pg/ml detectability limit, once with values below the detectability limit read as zero. Maximal plasma concentration and time at which this is reached are also determined. […]

SMILES | inhibition of the ciliary beating frequency of rat trachea [1] | AUC of serum concentration compared with 50 MRC units i.m. ([2]; 110 MRC units intra-nasally) | AUC of serum concentration compared with 50 MRC units i.m. ([2]; 220 MRC units intra-nasally) | adverse side-effects ([2]; nasal administrations, up to the highest dosage of 220 MRC units)
CC(C)(O)C(Cl)(Cl)Cl [chlorbutanol] | more than 50% |  |  | 
CC(C)C[C@H](NC(=O)[C@H](CCCCN)NC(=O)CNC(=O)[C@H](CC(C)C)NC(=O)[C@@H](NC(=O)[C@@H]1CSSC[C@H](N)C(=O)N[C@@H](CO)C(=O)N[C@@H](CC(N)=O)C(=O)N[C@@H](CC(C)C)C(=O)N[C@@H](CO)C(=O)N[C@@H]([C@@H](C)O)C(=O)N1)C(C)C)C(=O)N[C@@H](CO)C(=O)N[C@@H](CCC(N)=O)C(=O)N[C@@H](CCC(=O)O)C(=O)N[C@@H](CC(C)C)C(=O)N[C@@H](Cc1c[nH]cn1)C(=O)N[C@@H](CCCCN)C(=O)N[C@@H](CC(C)C)C(=O)N[C@@H](CCC(N)=O)C(=O)N[C@H](C(=O)N[C@@H](Cc1ccc(O)cc1)C(=O)N1CCC[C@H]1C(=O)N[C@@H](CCCNC(=N)N)C(=O)N[C@H](C(=O)N[C@@H](CC(N)=O)C(=O)N[C@H](C(=O)NCC(=O)N[C@@H](CO)C(=O)NCC(=O)N[C@H](C(=O)N1CCC[C@H]1C(N)=O)[C@@H](C)O)[C@@H](C)O)[C@@H](C)O)[C@@H](C)O [salmon calcitonin] |  | comparable | comparable | No adverse side-effects were recorded
